Results on eleven compounds are retold here after ChEMBL document CHEMBL2396537, “Orally active opioid compounds from a non-poppy source” (J Med Chem, 2013).

Each structure is given as a SMILES string. Activity calls are given as the source filed them. No cut-off for these calls is given here.

The species entered for series [1] is Cavia porcellus. The experiment in a line: Agonist activity at opioid receptor in guinea pig ileum assessed as inhibition of electrically-induced twitch at 100 pM to 30 uM relative to morphine. It is filed as tissue-based.
The species named for series [2] is Cavia porcellus. The experiment in a line: Selectivity ratio of Ki for mu opioid receptor in Dunkin-Hartley guinea pig brain over Ki for delta opioid receptor in Dunkin-Hartley guinea pig brain.
Series [3] addresses T1, Kappa-type opioid receptor (Cavia porcellus, UniProt P41144). Kind of series: Displacement of [3H]U-69,593 from guinea pig brain kappa opoid receptor after 1 hr by liquid scintillation counting analysis.
Series [4] in a line: Displacement of [3H]DPDPE from delta opoid receptor in Dunkin-Hartley guinea pig brain after 2 hrs by liquid scintillation spectrometry. Set-up: species or system Cavia porcellus.
Series [5] in a line: Displacement of [3H]DPDPE from guinea pig brain delta opoid receptor after 4 hrs by liquid scintillation counting analysis. Details: species or system Cavia porcellus. A general note: Displacement assays read how much labelled ligand stays bound in the presence of the test substance.
For series [6], the target named is T2, Mu-type opioid receptor (Cavia porcellus, UniProt P97266). Kind of series: Displacement of [3H]DAMGO from mu opoid receptor in Dunkin-Hartley guinea pig brain after 1.5 hrs by liquid scintillation spectrometry.
T2 sequence (P97266 whole entry): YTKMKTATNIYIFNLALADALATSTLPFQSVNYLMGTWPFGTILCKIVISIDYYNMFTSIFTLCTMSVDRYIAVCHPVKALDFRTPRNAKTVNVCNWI
In series [7] the test system is Mus musculus. Kind of series: Antinociceptive activity in ddY mouse assessed as tolerance level at 10 mg/kg, sc bid measured on day 5 by tail-flick test. The format is functional.
For series [8], the target named is T2, Mu-type opioid receptor. The experiment in a line: Displacement of [3H]DAMGO from guinea pig brain mu opoid receptor after 3 hrs by liquid scintillation counting analysis.
The next series concerns Rattus norvegicus. Kind of series: Inhibition of gastrointestinal transit of charcoal meal in rat at 55.2 mg/kg, po. Details: dose 55.2 mg/kg, route oral. The format is organism-based. To be noted: in vivo.
Series [9] in a line: Binding affinity to delta opioid receptor (unknown origin).
The target of series [10] is Mu-type opioid receptor (Homo sapiens, UniProt P35372). The experiment in a line: Binding affinity to mu opioid receptor (unknown origin).
Mu-type opioid receptor (Homo sapiens, UniProt P35372), sequence (P35372 whole entry): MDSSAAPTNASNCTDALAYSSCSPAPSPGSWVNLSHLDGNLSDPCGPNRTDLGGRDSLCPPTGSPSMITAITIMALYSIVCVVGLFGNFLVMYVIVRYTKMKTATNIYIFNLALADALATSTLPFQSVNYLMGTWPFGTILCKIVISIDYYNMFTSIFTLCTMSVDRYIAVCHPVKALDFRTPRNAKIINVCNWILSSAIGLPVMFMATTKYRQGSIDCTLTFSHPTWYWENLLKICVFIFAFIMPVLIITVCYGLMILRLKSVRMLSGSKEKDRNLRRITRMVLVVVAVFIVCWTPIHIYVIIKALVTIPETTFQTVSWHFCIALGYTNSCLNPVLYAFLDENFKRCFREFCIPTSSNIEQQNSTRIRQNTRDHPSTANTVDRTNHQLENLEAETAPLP
The target in series [11] is Kappa-type opioid receptor (Homo sapiens, UniProt P41145). Kind of series: Binding affinity to kappa opioid receptor (unknown origin).
Kappa-type opioid receptor (Homo sapiens, UniProt P41145), sequence (P41145 whole entry): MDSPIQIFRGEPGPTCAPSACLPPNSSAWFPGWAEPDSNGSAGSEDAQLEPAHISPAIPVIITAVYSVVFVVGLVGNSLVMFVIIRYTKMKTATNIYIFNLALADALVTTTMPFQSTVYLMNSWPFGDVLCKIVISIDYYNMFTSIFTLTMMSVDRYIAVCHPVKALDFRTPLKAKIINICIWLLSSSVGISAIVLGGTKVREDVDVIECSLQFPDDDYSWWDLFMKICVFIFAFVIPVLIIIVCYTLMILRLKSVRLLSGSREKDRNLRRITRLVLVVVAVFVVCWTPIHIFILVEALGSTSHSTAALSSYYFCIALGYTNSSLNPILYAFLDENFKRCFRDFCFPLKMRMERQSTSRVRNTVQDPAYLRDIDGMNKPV
The target in series [12] is T1, Kappa-type opioid receptor. Kind of series: Displacement of [3H]U-69593 from kappa opoid receptor in Dunkin-Hartley guinea pig brain after 1 hr by liquid scintillation spectrometry.
For series [13], the system named is Mus musculus. The experiment in a line: Antinociceptive activity in mouse at 92 mg/kg, po by hot plate test. It is filed as functional. For orientation: In hot-plate and tail-flick tests a longer latency is read as antinociception.

A word on the inhibition: it is the change of the read-out against control, counted positive when it falls. Broadly, the Ki is a measure of affinity in units of concentration, obtained from inhibition or displacement. A low value points to higher affinity.

T1 sequence (P41144 whole entry): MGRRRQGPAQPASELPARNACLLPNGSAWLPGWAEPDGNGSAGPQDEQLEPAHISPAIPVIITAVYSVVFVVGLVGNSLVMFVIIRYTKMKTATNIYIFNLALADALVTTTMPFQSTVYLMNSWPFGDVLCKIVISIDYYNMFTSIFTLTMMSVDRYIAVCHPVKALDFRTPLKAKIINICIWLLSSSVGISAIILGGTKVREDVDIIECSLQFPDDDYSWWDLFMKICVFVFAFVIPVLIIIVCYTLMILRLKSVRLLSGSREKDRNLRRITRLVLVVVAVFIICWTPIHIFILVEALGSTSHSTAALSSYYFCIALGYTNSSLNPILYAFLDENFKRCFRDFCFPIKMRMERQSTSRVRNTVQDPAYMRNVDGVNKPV

Turning to `CC[C@@H]1CN2CCc3c([nH]c4cccc(OC(C)=O)c34)[C@@H]2C[C@@H]1/C(=C\OC)C(=O)OC`, in the series listed under Cavia porcellus [1], the Efficacy worked out at 38% and the inhibition came out at 2%.

As to `CC[C@@H]1CN2CC[C@@]3(O)C(=Nc4cccc(OC)c43)[C@@H]2C[C@@H]1/C(=C\OC)C(=O)OC`, the Ratio Ki in the series listed under Cavia porcellus [2] is over 10. The Ki in series [3] turned out to be 195 nM; in [4], 155 nM; in series [5], 145 nM; at Mu-type opioid receptor [6], 13 nM; on Mu-type opioid receptor [8] it was 9.8 nM. Moreover, the Efficacy in the series listed under Cavia porcellus [1] came to 99%. Also, in the series on Mus musculus [7], the outcome was Active.

On to `CC[C@@H]1CN2CC[C@@]3(OC(C)=O)C(=Nc4cccc(OC)c43)[C@@H]2C[C@@H]1/C(=C\OC)C(=O)OC`, for which, in the series filed under Cavia porcellus [1], the Efficacy stood at 15% and the inhibition is 21%.

Consider `COc1ccc2c3c1O[C@H]1[C@@H](O)C=C[C@H]4[C@@H](C2)N(C)CC[C@@]341` [CODEINE], for which the “inhibition (INH)” value in the series with Rattus norvegicus came to 70%.

Consider `CCO[C@]12CCN3C[C@@H](CC)[C@@H](/C(=C\OC)C(=O)OC)C[C@H]3C1=Nc1cccc(OC)c12`, for which, in the series listed under Cavia porcellus [1], the Efficacy amounted to 26% and the inhibition came to 1%.

Take `CC[C@@H]1CN2CC[C@@]3(OC)C(=Nc4cccc(OC)c43)[C@@H]2C[C@@H]1/C(=C\OC)C(=O)OC`: in the series listed under Cavia porcellus [1], the Efficacy turned out to be 70% and the inhibition was 19%.

Turning to `CC[C@@H]1CN2CC[C@]3(Nc4cccc(OC)c4C3=O)[C@@H]2C[C@@H]1/C(=C\OC)C(=O)OC`, the inhibition constant (Ki) is 3 nM in series [9], 0.01 nM on Mu-type opioid receptor [10] and 79 nM in series [11].

For the compound `CC[C@@H]1CN2CCc3c([nH]c4cccc(O)c34)[C@@H]2C[C@@H]1/C(=C\OC)C(=O)OC`, in the series filed under Cavia porcellus [1], the Efficacy is 57% and the inhibition came to 41%.

As for `CC[C@@H]1CN2CCc3c([nH]c4cccc(OC)c34)[C@@H]2C[C@@H]1/C(=C\OC)C(=O)OC`, the Ratio Ki in the series listed under Cavia porcellus [2] was found to be 10. The same compound gave a Ki in series [4] of 60 nM. Moreover, the “inhibition (INH)” value in the series with Rattus norvegicus was 18%. Moreover, the Ki in series [12] is over 1000 nM. Further, in the series on Mus musculus [13], the Activity came to 100%. Also, in the series filed under Cavia porcellus [1], the Efficacy came out at 95% and the inhibition came to 26%.

Regarding `CC[C@@H]1CN2CC[C@@]34OCCO[C@@]3(Nc3ccc(F)c(OC)c34)[C@@H]2C[C@@H]1/C(=C\OC)C(=O)OC`, the inhibition constant (Ki) (on Mu-type opioid receptor [10]; in series [11]) was 7 nM each time.

Take `CN1CC[C@]23c4c5ccc(O)c4O[C@H]2[C@@H](O)C=C[C@H]3[C@H]1C5` [MORPHINE]: in the series on Rattus norvegicus, the “inhibition (INH)” value was 70%. For the same compound, the Activity in the series with Mus musculus [7] (route subcutaneous) amounted to 100%.
